Structures are written as SMILES.

One assay concerns the target T1, EGFR (Homo sapiens, UniProt P00533).
T1 construct: made in house; host or cells: baculovirus expression system
Kind of assay: EGFR substrate phosphorylation enzyme assay (HTRF). It counts as biochemical. Particulars: isolated enzyme, 20 μM ATP. The protocol: Compounds of the present invention were tested for EGFR, ErbB-2, and ErbB4 protein tyrosine kinase Inhibitory activity in substrate phosphorylation assays using enzymes purified from a baculovirus expression system.
(§1) The method measures the ability of the isolated enzyme to catalyse the transfer of the γ-phosphate from ATP onto the tyrosine residue of a biotinylated synthetic peptide (biotin-Ahx-[…]-amide). The extent of tyrosine phosphorylation was measured using an anti-phosphotyrosine antibody, and quantified by homogenous time-resolved fluorescence (HTRF).
(§2) The enzymes were first diluted from their concentrated stock solutions into buffer containing 100 mM MOPS (pH7.5); 0.01% Tween-20; 0.1 mg/mL bovine serum albumin (BSA); and 80 nM EGFR, 100 nM ErbB2, or 100 nM ErbB4. The enzymes were incubated in this buffer for 30 minutes at room temperature before addition to the assay plates. Reactions were performed in black 384-well polystyrene flat-bottom plates in a final volume of 20 μL. Reaction mixtures contained 100 mM MOPS (pH 7.5), 2 mM MnCl2, 20 μM ATP, 0.01% Tween-20, 0.1 mg/mL (BSA), 0.8 μM peptide substrate, and 1 mM dithiothreitol. Reactions were initiated by adding enzyme. 0.4 nM EGRF, 5 nM ErbB2, and 0.5 nM ErbB4 were the final enzyme concentrations.
Reactions were allowed to proceed for 90 minutes and were then terminated by the addition of 20 μL 100 mM EDTA to each well. 40 μL/well of HTRF mix were then added to the assay plates for the detection of phosphorylated substrate.
Compounds under analysis were dissolved in Me2SO to 1.0 mM and serially diluted 1 to 3 with Me2SO through twelve dilutions. 1 μL of each concentration was transferred to the corresponding well of an assay plate.
Data were fitted with a curve described by: y=((Vmax*x)/(K+x))+Y2 where Vmax is the upper asymptote, Y2 is the Y intercept, and K is the IC50.
Background: In TR-FRET formats the signal depends on donor and acceptor labels being close together.

A further assay deals with T2, ErbB2 (Homo sapiens, UniProt P04626).
T2 construct: made in house; host or cells: baculovirus expression system
In words: ErbB2 substrate phosphorylation enzyme assay (HTRF). In kind it is biochemical. Particulars: isolated enzyme, 20 μM ATP. The protocol: Compounds of the present invention were tested for EGFR, ErbB-2, and ErbB4 protein tyrosine kinase Inhibitory activity in substrate phosphorylation assays using enzymes purified from a baculovirus expression system. Reagent production was conducted essentially as described (Brignola, P. S., et al, (2002) J. Biol. Chem. v. 277 2, 1576-1585).
as §1, §2
Reactions were allowed to proceed for 90 minutes and were then terminated by the addition of 20 μL 100 mM EDTA to each well. 40 μL/well of HTRF mix were then added to the assay plates for the detection of phosphorylated substrate. Final assay concentrations were: 100 mM HEPES (pH7.5), 0.1 mg/mL BSA, 15 nM streptavidin-labeled allophycocyanin (PerkinElmer), and 1 nM europium-labeled anti-phosphotyrosine antibody (PerkinElmer). Assay plates were left unsealed and were counted in a Wallac Multilabel Counter 1420 (PerkinElmer).
Compounds under analysis were dissolved in Me2SO to 1.0 mM and serially diluted 1 to 3 with Me2SO through twelve dilutions. 1 μL of each concentration was transferred to the corresponding well of an assay plate. This creates a final compound concentration range from 0.00027 to 47.6 μM.
The data for dose responses were plotted as % Inhibition calculated with the data reduction formula 100*(1−(U1−C2)/(C1−C2)) versus concentration of compound where U is the unknown value, C1 is the average control value obtained for 4.76% DMSO, and C2 is the average control value obtained for 0.035 M EDTA. Data were fitted with a curve described by: y=((Vmax*x)/(K+x))+Y2 where Vmax is the upper asymptote, Y2 is the Y intercept, and K is the IC50. The results for reach compound were recorded as pIC50s, calculated as follows: pIC50=−Log10(K)

T1 sequence (P00533 669-1210 limits assumed): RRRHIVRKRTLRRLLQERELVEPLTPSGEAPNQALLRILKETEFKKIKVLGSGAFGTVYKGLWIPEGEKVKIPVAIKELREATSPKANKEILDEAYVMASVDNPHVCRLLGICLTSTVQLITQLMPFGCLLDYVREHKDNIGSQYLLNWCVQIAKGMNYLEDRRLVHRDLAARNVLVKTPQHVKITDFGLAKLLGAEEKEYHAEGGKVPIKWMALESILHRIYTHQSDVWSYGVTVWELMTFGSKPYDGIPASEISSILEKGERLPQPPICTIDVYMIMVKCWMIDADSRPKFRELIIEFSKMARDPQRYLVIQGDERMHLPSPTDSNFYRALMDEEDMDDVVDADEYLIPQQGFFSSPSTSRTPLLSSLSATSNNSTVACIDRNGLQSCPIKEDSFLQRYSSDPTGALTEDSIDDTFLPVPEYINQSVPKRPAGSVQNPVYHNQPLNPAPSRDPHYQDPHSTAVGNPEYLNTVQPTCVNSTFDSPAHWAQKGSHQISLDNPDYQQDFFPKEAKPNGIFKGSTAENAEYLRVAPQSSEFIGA
T2 sequence (P04626 676-1255 limits assumed): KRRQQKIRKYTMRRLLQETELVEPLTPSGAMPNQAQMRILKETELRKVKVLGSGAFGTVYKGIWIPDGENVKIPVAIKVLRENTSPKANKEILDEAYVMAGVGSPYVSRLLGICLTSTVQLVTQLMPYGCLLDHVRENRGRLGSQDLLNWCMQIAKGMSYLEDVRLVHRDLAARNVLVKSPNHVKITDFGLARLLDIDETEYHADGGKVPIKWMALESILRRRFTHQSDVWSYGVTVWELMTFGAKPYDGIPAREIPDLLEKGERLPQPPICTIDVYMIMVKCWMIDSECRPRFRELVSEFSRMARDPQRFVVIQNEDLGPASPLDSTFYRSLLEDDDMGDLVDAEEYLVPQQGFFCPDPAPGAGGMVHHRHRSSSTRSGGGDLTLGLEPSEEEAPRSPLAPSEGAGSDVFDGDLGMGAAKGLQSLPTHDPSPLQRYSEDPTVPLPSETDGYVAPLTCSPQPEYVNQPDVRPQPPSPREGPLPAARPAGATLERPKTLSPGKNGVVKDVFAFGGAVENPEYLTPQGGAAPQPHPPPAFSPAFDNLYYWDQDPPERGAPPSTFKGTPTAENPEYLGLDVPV

As to `C(=C\c1cncnc1Nc1ccc2sc(Cc3ccccc3)nc2c1)/c1ccsc1` [Example 5, 2-Benzyl-N-{5-[(E)-2-thien-3-ylethenyl]pyrimidin-4-yl}-1,3-benzothiazol-5-amine], the IC50 on EGFR and against ErbB2 was greater than 1000 nM each time.
For the compound `C(=C\c1cncnc1Nc1ccc2c(cnn2Cc2ccccc2)c1)/c1cn[nH]c1` [Example 9, 1-Benzyl-N-{5-[(E)-2-(1H-pyrazol-4-yl)ethenyl]pyrimidin-4-yl}-1H-indazol-5-amine], the IC50 on EGFR and at ErbB2 was 100 to 1000 nM each time.
Consider `Fc1cccc(COc2ccc(Nc3ncncc3/C=C/c3ccncc3)cc2Cl)c1` [Example 14, N-{3-Chloro-4-[(3-fluorobenzyl)oxy]phenyl}-5-[(E)-2-pyridin-4-ylethenyl]pyrimidin-4-amine], for which the IC50 on EGFR and on ErbB2 was less than 100 nM throughout.
As to `Fc1cccc(COc2ccc(Nc3ncncc3/C=C/c3ccsc3)cc2Cl)c1` [Example 17, N-{3-Chloro-4-[(3-fluorobenzyl)oxy]phenyl}-5-[(E)-2-thien-3-yletheny]pyrimidin-4-amine], the IC50 on EGFR and at ErbB2 was less than 100 nM each time.
Turning to `CC(=O)Nc1cccc(/C=C/c2cncnc2Nc2ccc(OCc3cccc(F)c3)c(Cl)c2)c1` [Example 20, N-(3-{(E)-2-[4-({3-Chloro-4-[(3-fluorobenzyl)oxy]phenyl}amino)pyrimidin-5-yl]ethenyl}phenyl)acetamide], the half-inhibitory concentration (IC50) at EGFR and against ErbB2 was less than 100 nM throughout.
For the compound `COc1ccc(/C=C/c2cncnc2Nc2ccc(OCc3cccc(F)c3)c(Cl)c2)cc1OC` [Example 21, N-{3-Chloro-4-[(3-fluorobenzyl)oxy]phenyl}-5-[(E)-2-(3,4-dimethoxyphenyl)ethenyl]pyrimidin-4-amine], the half-maximal inhibitory concentration (IC50) at EGFR and on ErbB2 was less than 100 nM in each case.
Consider `Fc1cccc(COc2ccc(Nc3ncncc3/C=C/c3ccccc3)cc2Cl)c1` [Example 22, N-{3-Chloro-4-[(3-fluorobenzyl)oxy]phenyl}-5-[(E)-2-phenylethenyl]pyrimidin-4-amine], for which the IC50 against EGFR and at ErbB2 was less than 100 nM throughout.
Regarding `N=C(N)Nc1cccc(C#Cc2cncnc2Nc2ccc(OCc3cccc(F)c3)c(Cl)c2)c1` [Example 49, N-(3-{[4-({3-Chloro-4-[(3-fluorobenzyl)oxy]phenyl}amino)pyrimidin-5-yl]ethynyl}phenyl)guanidine], the half-maximal inhibitory concentration (IC50) (commonly the concentration that inhibits the measured activity by half) at EGFR is 100 to 1000 nM; on ErbB2 it was less than 100 nM.
As to `Nc1cccc(C#Cc2cncnc2Nc2ccc(OCc3cccc(F)c3)c(Cl)c2)n1` [Example 67, 5-[(6-Amino-2-pyridinyl)ethynyl]-N-(3-chloro-4-{[(3-fluorophenyl)methyl]oxy}phenyl)4-pyrimidinamine], the IC50 on EGFR and against ErbB2 was less than 100 nM each time.
For the compound `CN(C)CCCC(=O)Nc1cccc(C#Cc2cncnc2Nc2ccc(OCc3cccc(F)c3)c(Cl)c2)n1` [Example 70, N-{6-[(4-{3-Chloro-4-[(3-fluorobenzyl)oxy]anilino}-5-pyrimidinyl)ethynyl]-2-pyridinyl}-4-(dimethylamino)butanamide], the IC50 on EGFR and against ErbB2 was less than 100 nM in each case.
For `COC(=O)CCC(=O)Nc1cccc(C#Cc2cncnc2Nc2ccc(OCc3cccc(F)c3)c(Cl)c2)n1` [Example 71, Methyl 4-({6-[(4-{3-chloro-4-[(3-fluorobenzyl)oxy]anilino}-5-pyrimidinyl)ethynyl]-2-pyridinyl}amino)-4-oxobutanoate], the IC50 against EGFR and against ErbB2 was 100 to 1000 nM throughout.
As for `CS(=O)(=O)CCNc1cccc(C#Cc2cncnc2Nc2ccc(OCc3cccc(F)c3)c(Cl)c2)n1` [Example 72, N-{3-Chloro-4-[(3-fluorobenzyl)oxy]phenyl}-5-[(6-{[2-(methylsulfonyl)ethyl]amino}-2-pyridinyl)ethynyl]-4-pyrimidinamine], the IC50 on EGFR and against ErbB2 was greater than 1000 nM throughout.
As to `Fc1cccc(COc2ccc(Nc3ncncc3C#Cc3cccc(CNCCN4CCOCC4)n3)cc2Cl)c1` [Example 76, N-{3-Chloro-4-[(3-fluorobenzyl)oxy]phenyl}-5-{[6-({[2-(4-morpholinyl)ethyl]amino}methyl)-2-pyridinyl]ethynyl}-4-pyrimidinamine], the IC50 against EGFR and against ErbB2 was 100 to 1000 nM throughout.
Consider `Fc1cccc(COc2ccc(Nc3ncncc3C#Cc3cccc(CNCCCn4ccnc4)n3)cc2Cl)c1` [Example 78, N-{3-Chloro-4-[(3-fluorobenzyl)oxy]phenyl}-5-{[6-({[3-(1H-imidazol-1-yl)propyl]amino}methyl)-2-pyridinyl]ethynyl}-4-pyrimidinamine], for which the IC50 on EGFR and against ErbB2 was less than 100 nM in each case.
For `COCc1cccc(C#Cc2cncnc2Nc2ccc(OCc3cccc(F)c3)c(Cl)c2)n1` [Example 80, N-{3-Chloro-4-[(3-fluorobenzyl)oxy]phenyl}-5-{[6-(methoxymethyl)-2-pyridinyl]ethynyl}-4-pyrimidinamine], the IC50 on EGFR and against ErbB2 was greater than 1000 nM each time.
Turning to `CS(=O)(=O)CCNC(=O)NCc1cccc(C#Cc2cncnc2Nc2ccc(OCc3cccc(F)c3)c(Cl)c2)n1` [Example 88, N-({6-[(4-{3-Chloro-4-[(3-fluorobenzyl)oxy]anilino}-5-pyrimidinyl)ethynyl]-2-pyridinyl}methyl)-N′-[2-(methylsulfonyl)ethyl]urea], the IC50 against EGFR and against ErbB2 was less than 100 nM in each case.
Regarding `O=C(NCCN1CCOCC1)NCc1cccc(C#Cc2cncnc2Nc2ccc(OCc3cccc(F)c3)c(Cl)c2)n1` [Example 89, N-({6-[(4-{3-Chloro-4-[(3-fluorobenzyl)oxy]anilino}-5-pyrimidinyl)ethynyl]-2-pyridinyl}methyl)-N′-[2-(4-morpholinyl)ethyl]urea], the IC50 at EGFR and against ErbB2 was less than 100 nM in each case.
Consider `Fc1cccc(COc2ccc(Nc3ncncc3C#Cc3cccc(CN4CCCCC4)n3)cc2Cl)c1` [Example 92, N-{3-Chloro-4-[(3-fluorobenzyl)oxy]phenyl}-5-([6-(1-piperidinylmethyl)-2-pyridinyl]ethynyl}-4-pyrimidinamine], for which the IC50 on EGFR and against ErbB2 was less than 100 nM in each case.
In turn, `Nc1nccc(C#Cc2cncnc2Nc2ccc(OCc3cccc(F)c3)c(Cl)c2)n1` [Example 99, 4-{[4-({3-Chloro-4-[(3-fluorobenzyl)oxy]phenyl}amino)pyrimidin-5-yl]ethynyl}pyrimidin-2-amine] returned an IC50 against ErbB2 of less than 100 nM.
Consider `O=C(Nc1cccc(C#Cc2cncnc2Nc2ccc(OCc3cccc(F)c3)c(Cl)c2)n1)C(F)(F)F` [Example 100, N-(6-{[4-({3-Chloro-4-[(3-fluorobenzyl)oxy]phenyl}amino)pyrimidin-5-yl]ethynyl}pyridin-2-yl)-2,2,2-trifluoroacetamide], for which the 50% inhibitory concentration (IC50) against EGFR and at ErbB2 was less than 100 nM throughout.

The values are drawn from US20060205740A1, “Chemical compounds” (priority 2003, published 2006).
